Reference: US8609417B2, “Methods and compositions for stem cell cultures” (The Regents of the University of California, priority 2009, dated 2013)

Columns and labels:
[1] = test system: hiPS and hES cells; experiment: Standard G-banded karyotyping; type: cell-based, human; settings: cells grown under blebbistatin/PDL for 20 passages
Method: Standard G-banded karyotyping was carried out for each cell line approximately every 10 to 20 passages.

[2] = test system: hES or hiPS cells grown under the defined condition; experiment: Teratoma formation in SCID/beige mice; type: in vivo, mouse; settings: cells grown under blebbistatin/PDL for 20 passages, about 2×10^6 cells subcutaneously, 4 to 8 weeks
Description: All animal-related protocols were approved by Institutional Animal Care and Use Committee. Cells (approximately 2×10^6 cells) grown under defined conditions for multiple passages with occasional freezing and thawing were subcutaneously injected into severe combined immunodeficient (SCID)/beige mice (Charles River Laboratories). After 4 to 8 weeks, the developed teratomas were excised, fixed in 4% paraformaldehyde or 10% formalin, and subjected to histological section preparations.

[3] = test system: cleaved caspase-3; experiment: Western analysis of cleaved caspase-3; type: cell-based, human; settings: hiPS cells under adherence condition
Method: Total protein was extracted with RIPA buffer (20 mM Tris-HCl, pH 7.5, 150 mM NaCl, 1 mM Na2EDTA, 1 mM EGTA, 1% NP-40, 1% sodium deoxycholate, 2.5 mM sodium pyrophosphate, 1 mM β-glycerophosphate, 1 mM Na3VO4, and protease inhibitors). Protein concentrations were determined by BCA Protein Assay kit (Pierce). An equal amount (20 μg) of protein was loaded in each lane, separated by 10% SDS/PAGE, and transferred onto a PVDF membrane (BioRad). The membrane was blocked in Odyssey blocking buffer (LI-COR Biotechnology), and subsequently incubated with primary antibodies against Oct3 (Santa Cruz Biotechnology), Nanog (Millipore), myosin IIA (Covance), myosin IIB (Covance), cleaved caspase-3 (Cell Signaling), or β-actin (Sigma) at 4° C. overnight followed by incubation with peroxidase-conjugated goat anti-mouse IgG or goat anti-rabbit IgG (Jackson ImmunoResearch, Inc.), and developed with ECL reagent (GE Healthcare).

[4] = test system: hiPS cells; experiment: Cell growth assay (population doubling time); type: cell-based, human; settings: hiPS cells on PDL in mTeSR, compound at 5 μM
Method: For the cell growth assay, hiPS or hES cells were plated at 2.5×10^4 cells/cm^2 on plates coated with PDL or Matrigel in mTeSR in the presence of blebbistatin at 5 μM or Y-27632 at 5 μM (PDL) or in the absence of compounds (Matrigel). Cells were harvested at the indicated time points, stained with trypan blue, and counted by the hemocytometer.

[5] = test system: hiPS cells; experiment: Clonal assay evaluated by alkaline phosphatase (ALP) assay; type: cell-based, human; settings: single cell per well, Matrigel-coated 96-well plates, blebbistatin 5 μM, 7 days
Method: hES or hiPS cells in mTeSR supplemented with or without blebbistatin were plated on Matrigel-coated 96-well plates at a single cell per well. Seven days after plating, cells were subjected to alkaline phosphatase assay using Alkaline Phosphatase Detection Kit (Millipore) according to the manufacturer's instruction.

[6] = test system: hiPS cells and hES cells; experiment: Cell survival / embryoid body formation in low-density suspension culture; type: cell-based, human; settings: compared with Y27632
Description: While hiPS and hES cells can form cell aggregates and subsequently grow as embryoid bodies when plated at high densities on non-adhesive culture surfaces such as non-tissue culture-treated plates, they mostly undergo apoptosis when plated at low densities that prevent cells from forming aggregates. This is because human pluripotent stem cells are epithelical cells that are programmed to activate cell death signals upon detachment from culture surface (anoikis).

[7] = test system: hiPS cells; experiment: Defined culture on PDL coating in mTeSR (self-renewal over passages); type: cell-based, human
Method: Cell culture. Two independent hES cell lines, H9 (WiCell) and BGN01 (BresaGen), were examined. hiPS cells used in the study include iPS (Foreskin) Clone 1 (WiCell) and two independently derived hiPS cells from normal human dermal fibroblasts (NHDF) which have been characterized by a series of molecular and functional assays. For the regular feeder-free culture, hES or hiPS cells were grown on Matrigel (BD Biosciences)-coated plates in a defined medium, mTeSR (StemCell Technologies). Cells were regularly passaged by the standard method using dispase (Invitrogen) or trypsin-EDTA (Lonza). General stem cell culture techniques are described in Freshney et al., Culture of Human Stem Cells (Culture of Specialized Cells), John Wiley & Sons, 1992 (the disclosure of which is incorporated herein by reference for all purposes). mES cells used in the experiment include CJ7, E14, RW4 (a parental line of NMHCIIA^−/A^− mES cells), NMHCIIA^−/A^−, and NMHCIIB^−/B^− mES cells. Cells were maintained on either mitotically inactivated mouse embryonic fibroblasts or gelatin (Sigma)-coated dishes with the standard medium in the presence of leukemia inhibitory factor (LIF) at 1400 U/ml (Millipore). For the microscopic or immunofluorescent analysis, cells were plated at approximately 5000-10000 cells/cm^2. For the defined culture, cells were plated at approximately 10000 cells/cm^2 on plates freshly coated with PDL or PDL-precoated plates (BD Bioscience) in mTeSR supplemented with 2.5 to 5 μM of blebbistatin or Y-27632. Medium was changed every day or every other day depending on confluency. Cells were passaged by using trypsin-EDTA every 3 to 4 days.

[8] = test system: hiPS cells; experiment: TUNEL assay (apoptosis); type: cell-based, human
Method: The samples in triplicates used for cell viability assay were immediately tested by TUNEL assay by using APO-DIRECT kit (BD Pharmingen) according to the manufacturer's protocol. The number of TUNEL (FITC) or propidium iodide (PI)-positive cells was counted by hemocytometer under fluorescent microscopy with 20× objective. When necessary, FITC-labeled cells were verified by using 40× objective to exclude non-specific signal. At least 300 cells were evaluated per each sample and counting was repeated for 2 times. The ratio of the number of TUNEL-positive cells to the number of PI-positive cells was calculated. The representative result was shown in the figure from experiments repeated for at least 3 times. Although flow cytometric analysis was initially attempted, due to persistent cell aggregations from suspension culture experiments even after extensive trypsinization and trituration, we decided to switch to manual cell counting which well correlated with the data obtained from cell viability assay.

[9] = test system: hiPS cells; experiment: Cell viability under suspension culture; type: cell-based, human; settings: 2 days
Method: For the evaluation of cell viability under suspension culture, hES or hiPS cells were plated at 5×10^5 in non-tissue culture-treated 6-well plates with non-conditioned standard hESm containing blebbistatin or Y-27632 at different concentrations in triplicates. After 2 days, cells were harvested with trypsinization and extensive trituration by pipetting, and the number of live cells was manually counted by using hemocytometer and trypan blue staining. The cell survival ratio (%) represents the ratio of the number of live cells to the number of cells plated. The same samples were subjected to TUNEL assay for side by side comparison with the data from cell viability assay.

## Cc1ccc2c(c1)C(=O)C1(O)CCN(c3ccccc3)C1=N2 (stereo not shown) [blebbistatin, 1-Phenyl-1,2,3,4-tetrahydro-4-hydroxypyrrolo[2,3-b]-7-methylquinolin-4-one]
[1]
  Karyotype: maintain genomic integrity
[2]
  Teratoma histology: contain all three germ-layer derived differentiated tissues
[3]
  Cleaved caspase-3 level by Western analysis: decreased
[4]
  Population doubling time: approximately 32.1 h
[5]
  Cloning efficiency (ratio of wells with an ALP-positive colony to wells seeded): 29±1.8%
[6]
  Cell survival in low-density suspension culture: markedly increased cell survival
[7]
  Growth and cell survival rates compared with Y27632: higher growth and cell survival rates than the cells treated with Y27632
[7]; 2.5 μM, over 15 passages
  Cytokinesis defects such as multinucleated cells: without any signs of cytokinesis defects
[7]; PDL-coating, mTeSR
  Minimum concentration sufficient for supporting cell-matrix interactions but not affecting cell-cell adhesions: 2.5 µM
[8]; hPS cells in suspension culture
  Level of apoptosis (TUNEL and cleaved caspase-3 assays): significantly lower levels of apoptosis
[8]; hiPS cells under adherence condition, 24 h, n=3 (control 73±2.5%)
  TUNEL-positive cells: 11±3.8%
[9]; hPS cells in suspension, various concentrations
  Effect on survival in suspension culture: higher viability than Y-27632
[9]; hiPS cells in suspension culture, 10 μM, n=3
  Number of live cells: 1.6±0.12×10^5 cells
